Measurements from patent publication US4663309A, “Novel peptide hormones with calcitonin-like activity” (University Patents, Inc., priority 1985, dated 1987).
Bridge positions count the residues as written; N and C are the ends. Peptide text beside a SMILES is read from it.

How the values were obtained:
[1] = Circular dichroism spectra, alpha-helical structure in solution; assay type: physicochemical
Text: The circular dichroism (CD) spectra of MCT-I and salmon calcitonin (designated "SCT-I", available from Armour Pharmaceuticals, Kankakee, IL and used without further purification) from 250 nm to 205 nm show minima at 222 nm and 208 nm characteristic of α-helical structure. For MCT-I, the mean residue molar ellipticity at 222 nm, [θ]222, was -7,800 deg.cm^2 /dmol (10^-4 M peptide, 0.02M sodium phosphate buffer, 0.16M KCl, pH 7.4), from which the α-helicity was estimated to be 30% (assuming no contribution to CD by β-sheet structure) according to the method of Morrisett, J. D., J. S. K. Davis, H. J. Pownall, and A. M. Gotto, Biochemistry 12:1290 (1973). […] Similarly, the value of [θ]222 for solutions of SCT-I over the same concentration range and under the same conditions also remains constant at -4,600 deg.cm^2 /dmol, leading to an estimate of 20% α-helix for this peptide. In 50% trifluoroethanol, a structure promoting solvent, both MCT-I and SCT-I were estimated to be 50% α-helical at a concentration of 5×10^-5 M, as was found by Brewer, H. D. and H. Edelhoch, J. Biol. Chem. 245:2402 (1970) for porcine calcitonin (PCT) in 50% 2-chloroethanol.
The circular dichroic spectra of MCT-II solutions buffered with 0.02M sodium phosphate at pH 7.4 and containing 0.16M KCl were measured from 250 nm to 200 nm using a Carey 60™ spectropolarimeter (Varian Instruments, Palo Alto. CA). The spectrometer cells used were washed with concentrated nitric acid, rinsed thoroughly with deionized water, then treated with a 1% aqueous polyethylene glycol (Mr 15K-20K) solution for 1 hr and finally rinsed with water before using. The molar ellipticities obtained from the circular dichroic spectra of MCT-II from 240 nm to 204 nm were fitted by a linear combination of three different basis functions derived from the spectra described by Greenfield, N. and G. D. Fasman, Biochem. 8:4108(1969) for α-helix, β-sheet, and random coil structure. […] Since there was no significant contribution to the spectrum from β-sheet structure, we used the mean residue molar ellipticity at 222 nm, [ θ]222, to estimate changes in α-helical structure (Morrisett et al., supra). The results are given in FIG. 3; each data point represents the mean from two experiments. […] [θ]222 for the monomer was -5,200 deg.cm^2 /dmol (20% α-helix) and -10,475 deg.cm^2 /dmol (35% α-helix) for the trimer. […] This dissociation constant corresponds to a 4.5 kcal/mol of stabilization energy per monomer for trimerization. Under similar conditions and over the same concentration range [θ]222 for MCT-I and SCT-I remained constant at -7,800 deg.cm^2 /dmol and -4,600 deg.cm^2 /dmol, respectively.

[2] = Surface monolayer studies at the air-water interface; assay type: physicochemical; settings: for Collapse pressure of the monolayer: air-water interface, 0.01M Tris.HCl pH 7.4, 0.1M NaCl
Protocol: For surface monolayer studies, a subphase of 0.01M Tris.HCl, pH 7.4 with 0.1M NaCl was prepared with glass-distilled water. Surfactant contaminants were removed by bubbling air through the solution for 10 min, then aspirating the surface of the buffer. Insoluble monolayers were spread from a 2.8×10^-4 M solution of MCT-I in 0.1 mM HCl. The surface pressure π(dyn/cm) of the MCT-I monomolecular layer was measured as a function of area, A (cm^2), using a Lauda™ film balance (Brinkman Instruments, Norwalk, CT). At the air-water interface, MCT-I and SCT-I form insoluble monolayers when spread from concentrated solutions in 0.01M HCl. The force-area (π-A) curves between 5 and 12 dyn/cm are described by the equation π[A-A.infin. (1-κπ)]=nRT where κ is a constant reflecting the compressibility of the monolayer and A.infin. is the limiting molecular area extrapolated to zero surface pressure. The parameters calculated for the two peptides were very similar, κ=0.016 cm/dyn for MCT-I and 0.02 cm/dyn for SCT-I, while A.infin. =362 Å^2 for MCT-I and A.infin. =322 Å^2 for SCT I. However, the collapse pressure of 24 dyn/cm found for the monolayer of MCT-I was much higher than the value of 14 dyn/cm observed for SCT-I.
Surface monolayer studies were conducted as in Example 4. MCT-II forms stable monolayers at the air-water interface when spread from concentrated solutions in 0.01M HCl. The force-area curve (π-A) between 0 dyn/cm and 21 dyn/cm can be described by the equation π(A-A.infin. (1-κπ))=nRT where A.infin. is the limiting molecular area extrapolated to zero surface pressure and κ is a constant reflecting the compressibility of the monolayer. The parameters calculated using the entire π-A curve indicate that MCT-II forms a compact, relatively rigid structure at the air-water interface. A.infin. was 362±10 Å^2 compared with 434±7 Å^2 for MCT-I and 559±18 Å^2 for SCT-I. Monolayers of SCT-I, MCT-I, and MCT-II were successively less compressible with κ having values of 0.03 cm/dyn for SCT-I, 0.02 cm/dyn for MCT-I, and 0.01 cm/dyn for MCT-II. Collapse of the monolayer occurred at 22 dyn/cm which was slightly lower than the 24 dyn/cm observed for MCT-I and higher than for the SCT-I monolayer which collapses at 12 dyn/cm.

[3] = calculated using the entire π-A curve (Example 7)
[4] = π-A curve between 5 and 12 dyn/cm (Example 4)

α-helicity estimated from [θ]222 ([1]; 0.02M sodium phosphate, 0.16M KCl, pH 7.4) | Mean residue molar ellipticity at 222 nm, [θ]222 ([1]; 0.02M sodium phosphate, 0.16M KCl, pH 7.4, constant from 10^-7 M to 10^-4 M) | α-helicity in 50% trifluoroethanol ([1]; 5×10^-5 M peptide) | Collapse pressure of the monolayer [2] | A∞, limiting molecular area extrapolated to zero surface pressure [2, 3] | κ, compressibility constant of the monolayer [2, 3] | A∞, limiting molecular area extrapolated to zero surface pressure [2, 4] | κ, compressibility constant of the monolayer [2, 4] | Stabilization energy per monomer for trimerization [1] | α-helix of the monomer ([1]; monomer) | Dissociation constant (Kd) for the oligomer ([1]; monomer/trimer equilibrium) | [θ]222 for the monomer ([1]; monomer, 0.02M sodium phosphate pH 7.4, 0.16M KCl) | α-helix of the trimer ([1]; trimer) | [θ]222 for the trimer ([1]; trimer, 0.02M sodium phosphate pH 7.4, 0.16M KCl) | Compound
30% | -7,800 deg.cm^2 /dmol | 50% | 24 dyn/cm | 434±7 Å^2 | 0.02 cm/dyn | 362 Å^2 | 0.016 cm/dyn | – | – | – | – | – | – | CC(C)C[C@@H]1NC(=O)[C@H](CC(N)=O)NC(=O)CNC(=O)[C@@H](N)CSSC[C@@H](C(=O)N[C@@H](CC(C)C)C(=O)N[C@@H](CC(C)C)C(=O)N[C@@H](CCC(N)=O)C(=O)N[C@@H](CCC(N)=O)C(=O)N[C@@H](Cc2c[nH]c3ccccc23)C(=O)N[C@@H](CCC(N)=O)C(=O)N[C@@H](CCCCN)C(=O)N[C@@H](CC(C)C)C(=O)N[C@@H](CC(C)C)C(=O)N[C@@H](CCC(N)=O)C(=O)N[C@@H](CCCCN)C(=O)N[C@@H](CC(C)C)C(=O)N[C@@H](CCCCN)C(=O)N[C@@H](CCC(N)=O)C(=O)N[C@@H](CC(C)C)C(=O)N2CCC[C@H]2C(=O)N[C@@H](CCCNC(=N)N)C(=O)N[C@H](C(=O)N[C@@H](CC(N)=O)C(=O)N[C@H](C(=O)NCC(=O)N[C@@H](CO)C(=O)NCC(=O)N[C@H](C(=O)N2CCC[C@H]2C(N)=O)[C@@H](C)O)[C@@H](C)O)[C@@H](C)O)NC(=O)[C@H]([C@@H](C)O)NC(=O)[C@H](CO)NC1=O [MCT-I] (H-CGNLSTCLLQQWQKLLQKLKQLPRTNTGSGTP-NH2; disulfide 1-7)
– | – | – | 22 dyn/cm | 362±10 Å^2 | 0.01 cm/dyn | – | – | 4.5 kcal/mol | 20% | 5.06×10^-11 M^2 | -5,200 deg.cm^2 /dmol | 35% | -10,475 deg.cm^2 /dmol | CC(C)C[C@H](NC(=O)[C@H](CCCCN)NC(=O)[C@H](CCC(N)=O)NC(=O)[C@H](CC(C)C)NC(=O)[C@H](CCC(N)=O)NC(=O)[C@H](CCC(N)=O)NC(=O)[C@H](CC(C)C)NC(=O)[C@H](CC(C)C)NC(=O)[C@@H]1CSSC[C@H](N)C(=O)N[C@@H](CO)C(=O)N[C@@H](CC(N)=O)C(=O)N[C@@H](CC(C)C)C(=O)N[C@@H](CO)C(=O)N[C@@H]([C@@H](C)O)C(=O)N1)C(=O)N[C@@H](CC(C)C)C(=O)N[C@@H](CCC(N)=O)C(=O)N[C@@H](CCCCN)C(=O)N[C@@H](CC(C)C)C(=O)N[C@@H](CCCCN)C(=O)N[C@@H](CCC(N)=O)C(=O)N[C@@H](Cc1ccc(O)cc1)C(=O)N1CCC[C@H]1C(=O)N[C@@H](CCCNC(=N)N)C(=O)N[C@H](C(=O)N[C@@H](CC(N)=O)C(=O)N[C@H](C(=O)NCC(=O)N[C@@H](CO)C(=O)NCC(=O)N[C@H](C(=O)N1CCC[C@H]1C(N)=O)[C@@H](C)O)[C@@H](C)O)[C@@H](C)O [MCT-II] (H-CSNLSTCLLQQLQKLLQKLKQYPRTNTGSGTP-NH2; disulfide 1-7; N-terminus assumed)
